# From patent US6124275A, “Methods and compositions for controlling a pest population” (priority 1999, dated 2000)
# Like-named read-outs stand apart in the source and are kept apart here.
# How the values were obtained:
# [1] = test system: melon aphids; assay: whole plant or invertebrate; conditions: Aphis gossypii, topical, read-out: Total Mortality
# [2] = test system: melon aphids; conditions: 1.5% BB, 0.5% T80; words
# [3] = test system: human head lice eggs; conditions: 22.5 g as a thin layer on the eggs; cited from earlier work
# [4] = test system: two-spotted spider mites; conditions: 1.0% BB, 0.1% T80; words
# [5] = test system: melon aphids; conditions: words
# [6] = test system: Western flower thrips (larvae and pupae); conditions: 1.0% BB, 0.1% T80, words
# [7] = test system: rats; conditions: Merck Index; cited from earlier work
# [8] = test system: two-spotted spider mites; conditions: words
# [9] = test system: chrysanthemums; set-up: species or system chrysanthemum; conditions: in vivo
# Description: Both formulations were applied via direct contact spray. […] The phytotoxicity of plants were also observed.
# [10] = test system: cat flea; assay: Pesticidal efficacy, cat flea (Example 8); conditions: for mortality at 5 wt %: Ctenocephalides felis, topical, 24 h, read-out: highest observed mortality
# Description: (§1) All experiments were conducted with a hand held sprayer at an application rate equivalent to 100 gallons/acre. […] Specific treatment conditions were as follows: pharaoh ants were contained in paper cups with a cloth mesh enclosure at the top and sprayed from a distance of 12 inches; honey bees were contained in wire mesh cages with Petri dishes as end enclosures and sprayed from a distance of 24 inches; German cockroaches and houseflies were contained in Peet-Grady chambers and sprayed from a distance of 24 inches; and cat fleas were delivered onto carpet disks and sprayed from an un-reported distance.
# (§2) In evaluating efficacy against structural pests, BS was tested on pharaoh ant and cat flea at two concentrations, 1 wt % and 5 wt %.
# [11] = test system: roses; conditions: in vivo
# Description: Both formulations were applied via direct contact spray.
# Both were applied via direct contact spray.
# [12] = test system: German cockroach; assay: whole plant or invertebrate; conditions: Blattella germanica, topical, 24 h, read-out: highest observed mortality
# Description: as §1
# [13] = test system: western flower thrips; conditions: words
# [14] = test system: housefly; assay: whole plant or invertebrate; conditions: Musca domestica, topical, 24 h, read-out: highest observed mortality
# Description: as §1
# [15] = test system: silverleaf whiteflies; conditions: for highest observed mortality: silverleaf whitefly, in vivo, topical or ocular, 120 h
# [16] = test system: melon aphid; assay: Pesticidal efficacy, melon aphid (Example 8); conditions: for mortality at 1 % / mortality at 5 %: Aphis gossypii, topical, read-out: highest observed mortality
# Description: (§3) Plants (chrysanthemum and minirose) were infested with melon aphid and two-spotted spider mites and sprayed to run-off using a standard 250 ml hand-held sprayer. Mortality was recorded at 24 HPA and 48 HPA.
# [17] = test system: melon aphids; conditions: 1.5% BB, 0.3% T80; words
# [18] = test system: western flower thrips; assay: whole plant or invertebrate; conditions: Frankliniella occidentalis, topical, 72 h, read-out: highest observed mortality
# [19] = test system: Western flower thrips (larvae and pupae); assay: whole plant or invertebrate; conditions: Frankliniella occidentalis, topical, read-out: Total Mortality
# [20] = test system: melon aphids; assay: whole plant or invertebrate; conditions: Aphis gossypii, topical, 24 h, read-out: Total Mortality
# [21] = test system: pharaoh ant; conditions: for highest observed mortality: in vivo, topical or ocular, 24 h
# Description: as §1, §2
# [22] = test system: E. hirsti (chiggar mite) larvae; conditions: cloth treated with ethanol solution of 5% benzyl benzoate, cited from earlier work
# [23] = test system: honey bee; assay: Pesticidal efficacy, honey bee (Example 8); type: in vivo; conditions: Apis mellifera, topical, T20 carrier, 24 hours post application, read-out: highest observed mortality
# [24] = test system: melon aphids; assay: whole plant or invertebrate; conditions: Aphis gossypii, topical, 24 h, read-out: Total Mortality; remark: listed apart in the source
# [25] = test system: leafminer; conditions: for highest observed mortality: leafminer, in vivo, topical or ocular, 480 h
# [26] = test system: Argentine ant; assay: Pesticidal efficacy, Argentine ant (Example 8)
# [27] = until 25 wt % concentration; cited from earlier work
# [28] = test system: arthropods; assay: Insecticidal activity on arthropods (general statement); type: in vivo; conditions: words
# [29] = test system: Argentine ants; assay: Repellency to Argentine ants; type: in vivo, Argentine ant; conditions: at one week
# [30] = test system: plants; assay: Phytotoxicity to plants (general statement); type: in vivo; conditions: words
# [31] = test system: melon aphids; assay: whole plant or invertebrate; type: in vivo, Aphis gossypii; conditions: for efficacy against melon aphids: 1.0% BS, 0.2% T20, words
# [32] = test system: two-spotted spider mites; type: in vivo, Tetronmychua urticae; conditions: for efficacy against two-spotted spider mites: 1.0% BS, 0.2% T20, words
# [33] = test system: American cockroach; conditions: for Time (to 100% lethality): 5.0 wt % ES, 1.0 wt % T20
# Description: (§4) The objective of the experiment was to evaluate the general effectiveness of ES in an emulsion formulation against the American cockroach.
# (§5) An emulsion of ES (Sigma) was prepared at 5.0 wt % ES and 1.0 wt % T20. A 1 wt % T20 solution was also prepared as a formula blank treatment. A negative control of no treatment was included in the bioassay. The three treatments were applied to three replications of 4 cockroaches each.
# (§6) The treatments were applied as sprays using a standard hand held 250 ml sprayer. For each direct treatment, 4 cockroaches were each sprayed to run-off on filter paper fitted to the bottom of a 1 liter stainless steel jar. Cockroaches were then transferred to 250 ml flasks for observation. For residuality/reintroduction bioassays, the treated filter papers were removed from direct treatment spray jars and allowed to air dry. After drying, the filter papers were replaced in jars and cockroaches introduced for observation.
# [34] = test system: two-spotted spider mite; assay: Pesticidal efficacy, two-spotted spider mite (Example 8); conditions: for mortality at 5 %: Tetranychus urticae, topical, read-out: highest observed mortality
# Description: as §3
# [35] = test system: American cockroach; assay: whole plant or invertebrate; conditions: Periplaneta americana, topical, read-out: highest observed mortality
# Description: as §4, §5, §6
# [36] = test system: cladosporium; assay: Evaluation against the fungus cladosporium; conditions: 1 wt % formulation
compound,measurement,setting,value
"O=C(OCc1ccccc1)c1ccccc1 [BB, benzyl benzoate]",mortality at 1.5 %,[1],85%
same,effect on melon aphids,[2],"killed the aphids in their tracks; the aphids did not desiccate, instead appeared preserved"
same,killing human head lice eggs,[3],killing human head lice eggs
same,efficacy against two-spotted spider mites,[4],indicate efficacy of the benzyl benzoate formulation against two-spotted spider mites
same,efficacy against melon aphids,"[5]; 2.5% BB, 0.1% T80",clear efficacy against melon aphids
same,controlling aphids,[5]; summary of Examples 1-7,effective for controlling aphids
same,efficacy against Western flower thrips,[6],clear efficacy against Western flower thrips
same,efficacy against Western flower thrips,[6]; listed as benzyl benzoate,"effective for controlling aphids, thrips"
same,LD50,[7],"1,830 mg/Kg"
same,efficacy against two spotted spider mites,"[8]; 2.5% BB, 0.1% T80",clearly indicate efficacy of the BB formulation against two spotted spider mites
same,controlling spider mites,[8]; summary of Examples 1-7,"effective for controlling aphids, thrips, and spider mites"
same,phytotoxicity of chrysanthemums,[9],None of the treatments resulted in phytotoxicity of chrysanthemums
same,phytotoxicity to chrysanthemums,[9],no phytotoxicity to chrysanthemums
same,"phytotoxicity, chrysanthemum",[9],"no phytotoxicity for 5 days, only the lowest leaves showed two necrotic spots but no serious damage"
same,"phytotoxicity, chrysanthemums",[9],no phytotoxicity
same,mortality at 5 wt %,[10],93%
same,phytotoxicity observed on the roses,[11],no phytotoxicity observed
same,mortality at 1 %,[12],0%
same,"dose response, western flower thrips",[13],all except for western flower thrips
same,mortality at 0.1 %,[14],35%
same,highest observed mortality,[15],39%
same,"dose response, silverleaf whiteflies",[15]; words,Good dose response
same,mortality at 1 %,[16],74%
same,"dose response, melon aphid",[16]; words,Good dose response
same,efficacy against melon aphids,[17],clear efficacy against melon aphids
same,mortality at 0.25 %,[18],14%
same,mortality at 1 %,[19],85.7%
same,mortality at 2.5 %,[20],90.3%
same,highest observed mortality,[21],21%
same,knockdown of test larvae,[22]; <3 minutes,100%
same,time to 100% knockdown,[22],< 3 min
same,mortality at 0.3 %,[23]; 0.3 wt % AC,68%
same,mortality at 1.5 %,[24],89.4%
same,highest observed mortality,[25],24%
same,"dose response, leafminer",[25]; words,Good dose response
"O=C(OCc1ccccc1)c1ccccc1O [BS, benzyl salicylate]",highest observed mortality,"[26]; 1.0 wt % AC, T20 carrier",99%
same,LC100 at higher concentrations,"[26]; 2, 3 and 5 wt %, words","held at 2 wt %, 3 wt % and 5 wt %"
same,LC100,[26]; AC concentration,1 wt %
same,activity on Argentine ants,[26]; words,excellent activity
same,"dose response, Argentine ants",[26]; words,good dose response
same,"phytotoxicity, chrysanthemums",[9],"severe damage from leaf tips moving inwards, and some leaf damage beginning from bottom leaves and moving upwards, with the newest leaves remaining unaffected"
same,effective on cat flea,"[10]; 5 wt %, words",effective on both pests
same,mortality at 5 wt %,[10],100%
same,contact dermatitis,[27],does not cause contact dermatitis (until 25 wt % concentration)
same,mortality at 1.1 %,[12],0%
same,insecticidal activity,[28],clearly shown to be insecticidal
same,mortality at 0.1 %,[14],47%
same,highest observed mortality,[15],70%
same,mortality at 1 %,[16],98%
same,"dose response, melon aphid",[16]; words,activity increased with AC concentration only on melon aphid
same,mortality at 0.5 %,[18],36%
same,repellant to Argentine ants,[29],repellant to Argentine ants at one week
same,phytotoxicity,[30],can be phytotoxic to some plants
same,effective on pharaoh ant,"[21]; 5 wt %, words",effective on both pests
same,highest observed mortality,[21],89%
same,mortality at 1 %,[23]; 1.0 wt % AC,78%
same,efficacy against melon aphids,[31],clearly indicate the efficacy of BS against melon aphids
same,efficacy against melon aphids,[31]; listed as benzyl salicylate,effective in controlling aphids
same,mortality at 1 %,"[31]; Aphis gossypii, topical, read-out: Total Mortality",89.3%
same,efficacy against two-spotted spider mites,[32],clearly indicate the efficacy of BS against melon aphids and two-spotted spider mites
same,efficacy against two-spotted spider mites,[32]; listed as benzyl salicylate,effective in controlling aphids and spider mites
same,Total Mortality,"[32]; in vivo, topical or ocular",86.9%
same,highest observed mortality,[25],25%
"CCOC(=O)c1ccccc1O [ES, ethyl salicylate]",lethality on American cockroach,"[33]; 5 wt %, direct spray, words",lethal
same,Time (to 100% lethality),[33]; Direct spray,3 to 7 min
same,Time (to 100% lethality),[33]; Residuality/Reintroduction,60 to 120 min
same,Lethality,"[33]; american cockroach, in vivo",100%
same,"time, lethal to all test cockroaches",[33]; both direct spray and residual/reintroduction,≤ 2 h
same,mortality at 5 %,[16],90%
same,mortality at 5 %,[34],90%
same,mortality at 5 wt %,[35],100%
CC(=O)OCc1ccccc1 [benzyl acetate],mortality at 5 %,[16],≥ 90%
same,activity on aphid,[16]; words,high activity
same,mortality at 5 %,[34],≥ 90%
same,activity on 2-spotted spider mites,[34]; words,high activity
same,phytotoxicity,[30],non-phytotoxic
CCCCOC(=O)c1ccccc1C(=O)OCc1ccccc1 [benzyl butyl phthalate],mortality at 5 %,[16],70%
same,mortality at 5 %,[34],50%
COC(=O)c1ccccc1O [methyl salicylate],mortality at 5 %,[16],90%
same,mortality at 5 %,[34],90%
O=C(Oc1ccccc1)c1ccccc1O [phenyl salicylate],effect against the fungus cladosporium,[36],effective at both inhibiting fungal growth and at killing the fungus
same,mortality at 5 %,[16],90%
same,mortality at 5 %,[34],90%
